US20240268379A1, “BIODEGRADABLE PVA/PVP HYDROGELS, USES AND PREPARATION THEREOF” (Bar-Ilan University, priority 2021, published 2024)

Assay: Thermal stability of thymol by TGA-MS
Type: physicochemical
Conditions: 20° C./min, nitrogen
Description: Thermal gravimetric analysis (TGA) was carried out using SETSYS, by Setaram. The released products during the measurements were obtained by using Hiden HPR-20 QIC mass spectrometer (TGA) coupled with mass spectroscopy (MS). The analysis was conducted to study the stability effect of the PVA/PVP hydrogel, under heat treatment, on thymol, entrapped in the hydrogel, relative to thymol pure form. The tested samples were heated from 30° C. up to 630° C. (20° C./min heat rate) under nitrogen inert atmosphere (20 ml/min nitrogen flow rate).

For `Cc1ccc(C(C)C)c(O)c1` [pure thymol, thymol], which “thymol loss end temperature” value is on record?
The value was 130 °C.

What about the “thymol loss start temperature” value of the same compound?
The value was 70 °C.
